Assay results published in patent publication US20020102688A1, “Methods and products for the synthesis of oligosaccharide structures on glycoproteins, glycolipids, or as free molecules, and for the isolation of cloned genetic sequences that determine these structures” (The Regents of the University of Michigan, priority 1990, published 2002).

Target: T1, Fuc-TIII (Homo sapiens, UniProt P21217)
T1 construct: showing that this insert is essentially full-length; expressed in transfected cells; host or cells: COS-1 cells (monkey kidney), transient DEAE-dextran transfection, 1% Triton X-100 extract
T1 sequence (P21217 1-361): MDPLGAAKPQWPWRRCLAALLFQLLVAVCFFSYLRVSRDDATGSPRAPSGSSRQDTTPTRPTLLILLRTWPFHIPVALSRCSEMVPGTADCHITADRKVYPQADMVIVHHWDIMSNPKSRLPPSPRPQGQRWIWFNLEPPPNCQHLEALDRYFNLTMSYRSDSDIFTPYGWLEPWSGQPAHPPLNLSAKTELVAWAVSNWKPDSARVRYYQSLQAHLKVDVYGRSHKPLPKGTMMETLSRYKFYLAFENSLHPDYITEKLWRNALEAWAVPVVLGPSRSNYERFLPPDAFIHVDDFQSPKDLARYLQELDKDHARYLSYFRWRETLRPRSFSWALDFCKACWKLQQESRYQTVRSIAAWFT
Assay: Fucosyltransferase assay, extracts of COS-1 cells expressing the Lewis fucosyltransferase
Assay type: biochemical
Settings: for fucose transfer to acceptor: extracts containing the Lewis blood group fucosyltransferase, same conditions as Fuc-TIV; for Relative Activity (%) with Fuc-TIII: relative product formation rate, N-acetyllactosamine = 100, acceptor 20 mM (2-fucosyllactose 5 mM), GDP-[14C]fucose 3 μM, transfected COS-1 cell extract
Description: Fucosyltransferase assays were performed in 50 mM MOPS pH 6.5, 25 MM MnCl2 10 MM L-fucose, 5 mM ATP, […] GDP-[^14C]fucose (specific activity of 600,000 cpm/nmol; 35,000 cpm per assay), 2.5 mM acceptor (e.g. 2′-fucosyllactose, N-acetyllactosamine, lactose or lacto-N-biose I), and up to 10 μl of cell extract, in a final volume of 20 μl. When determining α(1,3)FT specific activities achieved during the sib selection process, and in the analysis of the protein A-fucosyltransferase fusion protein experiments, the amount of added cell extract and incubation times were adjusted to yield (linear) reaction rates reflecting accurate specific activities. Reactions were incubated at 37° C. for 2 or 6 hours, and then terminated by the addition of 20 μl of ethanol, followed by dilution with 500 μl of H2O. The terminated, diluted reactions were then centrifuged at 15,000×g for 5 min. Fifty μl of each reaction supernatant was counted to determine total radioactivity, and 200 μl of each was fractionated by Dowex-1 chromatography. The neutral radiolabelled material eluting from the column was then counted directly as a measure of product formation. Enzyme specific activity is defined as pmol of fucose transferred from GDP-fucose to acceptor per mg cell extract protein per hour. Neutral products were also further analyzed as described below by descending paper chromatography and by HPLC to confirm their identity. Parallel reactions were done in the absence of added acceptor to allow correction for transfer to endogenous acceptor molecules and for substrate and product hydrolysis.
Cell extracts containing 1% Triton X-100 were prepared from transfected COS-1 cells. Fucosyltransferase assays were performed in a total volume of 20 μl, and contained 50 mM sodium cacodylate, pH 6.2, 5 mM ATP, 10 mM fucose, 20 mM MnCl2, 3 μM GDP-^14C-fucose, and 5 μl (30 μg protein) of cell extract. Acceptor substrates were added to a final concentration of 20 mM. Reactions were incubated at 37° C. for 1 hour and terminated by addition of 20 μl ethanol, followed by addition of 600 μl of distilled water. An aliquot of each reaction (50 μl) was subjected to scintillation counting to determine total radioactivity in the reaction. Another aliquot (200 μl) was applied to a column containing 400 μl of Dowex IX2-400, formate form. The flow through fraction, and […] of a subsequent water elution, were collected and pooled, and an aliquot was subjected to scintillation counting to quantitate incorporation of radioactive fucose into neutral product. Descending paper chromatography was used to confirm the structure of the product formed with the acceptor N-acetyllactosamine. The neutral product in the Dowex column eluate was concentrated by lyophilization, resuspended in a small volume of water, and fractionated through Whatman No. 40 in phenol/isopropanol/formic acid/water (85:5:10:100, lower layer). After chromatography (40 hours), the air-dried chromatogram was cut into 1 cm strips and the strips eluted into 2 ml of water. Radioactivity in each eluate was determined by scintillation counting after mixing with 10 ml of scintillation cocktail.
Table 2 presents the relative product formation rates obtained with low molecular weight acceptor substrates using cell extracts containing recombinant human α(1,3)fucosyltransferases expressed in transfected COS-1 cells, as described in the preceding sections. Fucosyltransferase assays were performed as described in detail in Lowe et al, J. Biol. Chem., (1991), 266:17467-17477; Weston et al, J. Biol. Chem. (1992), 267:4152-4160; and Kukowska-Latallo et al, Genes. Devel., (1990), 4:1288-1303. For each enzyme, the same extract was used, with saturating amounts of each acceptor oligosaccharide (20 mM, except for 2′-fucosylactose which was used at 5 mM), and GDP-^14C]fucose was present at 3 μM. Reaction times and enzyme amounts were adjusted to ensure a linear rate of product formation (less than 15% of the GDP-fucose substrate consumed). […]

| Relative Activity (%) with Fuc-TIII [%] | Molecule | fucose transfer to acceptor [pmol/mg/h] |
| --- | --- | --- |
| 420 | CC(=O)N[C@@H]1[C@@H](O[C@@H]2O[C@H](CO)[C@H](O)[C@H](O)[C@H]2O)[C@H](O)[C@@H](CO)O[C@@H]1O [lacto-N-biose I] | – |
| 145 | OC[C@H]1O[C@@H](O[C@H]2[C@H](O)[C@@H](O)C(O)O[C@@H]2CO)[C@H](O)[C@@H](O)[C@H]1O (stereo partly shown) [lactose] | – |
| 56 | CC(=O)NC1C(O)OC(CO)C(OC2OC(CO)C(O)C(OC3(C(=O)O)CC(O)C(NC(C)=O)C(C(O)C(O)CO)O3)C2O)C1O (stereo not drawn) [α(2,3)sialyllactosamine, NeuAcα(2→3)Galβ(1→4)GlcNAc] | 297 |
| 254 | Fucα(1,2)Galβ(1,4)Glc [2-fucosyllactose] | – |

| Molecule | Relative Activity (%) with Fuc-TIII [%] | fucose transfer to acceptor [pmol/mg/h] |
| --- | --- | --- |
| CC(=O)N[C@H]1C(O)O[C@H](CO)[C@@H](O[C@@H]2O[C@H](CO)[C@H](O)[C@H](O)[C@H]2O)[C@@H]1O (stereo partly shown) [N-acetyllactosamine] | 100 | 526 |
